According to publication PMC8296708, “The pan HDAC inhibitor Givinostat improves muscle function and histological parameters in two Duchenne muscular dystrophy murine models expressing different haplotypes of the LTBP4 gene” (Skeletal Muscle, 2021):

How the values were obtained:
D2.B10 mice [1] = assay: Grip strength test (FNmax) in D2.B10 mice; format: in vivo, mouse (D2.B10-Dmd^mdx/J)
Source text: (§1) For the efficacy studies, C57BL/10 J (Stock No: 000665) wild type (wt) and C57BL/10ScSn-Dmd^mdx/J (Stock No: 001801) 7–8-week-old male mice, DBA/2J wt (Stock No: 000671), and D2.B10-Dmd^mdx/J (Stock No: 013141) 6–7-week-old male mice were purchased from The Jackson Laboratories (Bar Harbor, Maine, USA). After 5 days of acclimatization in the animal facility, mice were randomized into different treatment groups based on their BW. C57BL/10J wt mice were assigned to the naive wt group (healthy mice that received no treatment, but were subjected to functional tests), whereas mdx mice were assigned to the following groups (9 mice/group; 4–5 mice/cage): naive mdx (mice that received no treatment, but were subjected to functional tests), vehicle (0.5% methylcellulose, p.o.), and Givinostat (0.1, 0.3, 1, 5, 10, 25, and 37.5 mg/kg, p.o.). DBA/2J mice were assigned to the naive wt group (healthy mice that received no treatment, but were subjected to functional tests), whereas D2.B10 mice were assigned to the following groups (12–13 mice/group; 4–5 mice/gage): vehicle (filtered tap water, p.o.), Givinostat (1, 5, 10, and 37.5 mg/kg, p.o.), prednisone 1 mg/kg, and Deflazacort 1 mg/kg (i.p.).
(§2) In the efficacy studies, Givinostat powder (ITF2357) was suspended in 0.5% methylcellulose (Sigma-Aldrich) and administered p.o. (by gavage) at the doses of 0.1, 0.3, 1, 5, 10, 25, and 37.5 mg/kg qdx5x15weeks (administration volume per mouse: 10 mL/kg) in mdx mice (see Additional Figure 1A). Vehicle-treated mdx mice received 0.5% methylcellulose suspension. Givinostat suspension was stored at + 4 °C, and it was freshly prepared every 7 days. Probably due to the impairment of their tongue and masticatory muscles, the oral gavage procedure turned out to be difficult to perform, and chronic treatment of D2.B10 mice by this route was considered to bear a high risk of damaging the esophagus. For this reason, Givinostat was administered in the drinking water. Givinostat was dissolved in filtered tap water and was administered in drinking water (throughout 24 h) for 105 days at the dose of 1, 5, 10, and 37.5 mg/kg/day, according to a daily estimate of water consumption of 4 ml/mouse/day. Water consumption was weekly monitored throughout the entire duration of the study weighing the bottle of each cage (maximum 4 mice per cage). Prednisone and Deflazacort powder (Sigma-Aldrich) was dissolved in 2% DMSO (Sigma-Aldrich) and diluted in sterile saline on injection days. Both drugs were administered weekly (for 15 weeks) by i.p. injection at the dose of 1 mg/kg in a volume of 10 mL/kg. Givinostat and steroid treatments started on days 7 and 9 of the experimental plan, respectively (see Additional Figure 1B). All mice were monitored daily and tolerability was evaluated on the basis of BW and clinical signs.
(§3) In both efficacy studies, the effectiveness of treatments was evaluated every week by measuring the forelimb strength by a grip strength meter (Ugo Basile SRL, Italy). BW of mdx (see Additional Figure 2) and D2.B10 mice (see Additional Figure 3) was also measured in order to normalize the absolute grip strength of each mouse with respect to its BW. The protocol provides 5 measurements for each mouse (the procedure was compliant with the standard operating procedures of TREAT–NMD Neuromuscular Network). The highest recorded value of maximal normalized strength (FNmax) obtained for each mouse at all the time points (from T0 to T15) was used for further analysis.
After taking baseline readings for behavioral assays (FNmax and distance run by the animals), mice were re-randomized based on these two parameters, also considering the previous randomization performed on their BW.
The grip strength and run to exhaustion tests were performed during the light-cycle phase, in the early hours of the morning (8:00–11:30 am). […]

[2] = Body weight of D2.B10 mice; format: in vivo, mouse (D2.B10-Dmd^mdx/J); conditions: mouse, in vivo
Method: as §2, with “Givinostat and steroid treatments started on days 7 and 9 of the experimental plan, respectively (see Additional Figure 1B).” left out
as §3, with “The protocol provides 5 measurements for each mouse (the procedure was compliant with the standard operating procedures of TREAT–NMD Neuromuscular Network).” left out

D2.B10 mice [3] = assay: Myofiber cross-sectional area (CSA) in D2.B10 mice; format: in vivo, mouse (D2.B10-Dmd^mdx/J); conditions: D2.B10 muscles, 1 mg/kg i.p. weekly
Source text: (§4) Tibialis anterior (TA), gastrocnemius (GAS), DIA, and heart were collected from mice maintained under isoflurane anesthesia and sacrificed by cervical dislocation. These muscles were collected from C57BL/10J wt and mdx (5 mice/group) at the end of treatments and from DBA/2J wt and D2.B10 mice (5 mice/group) at two different time points to be examined by a pathologist (for more details see Additional Table 1). Due to the results obtained by the functional tests, muscles from only some treatment groups were analyzed in both DMD models (see Additional Table 1). All the collected muscles were fixed in 10% buffered formalin solution (Bio-optica, Milan, Italy) at + 4 °C for at least 48 h. After fixation, muscular samples were transversely trimmed, caged, and paraffin embedded overnight with an Automated Vacuum Tissue Processor Floor (ETP, Histo-Line Laboratories) and included in paraffin blocks. Serial transverse cross-sections (4 μm thick) were cut with a microtome (Leica RM 2255), collected onto uncoated glass slides, and stained using a standard protocol for hematoxylin and eosin (Mayer hematoxylin & Aqueous G Eosin 1%, Bio-Optica) and Sirius Red staining (Direct Red 80, Sigma-Aldrich). For the image analysis and quantitation, hematoxylin and eosin- and Sirius Red-stained slides were examined with an Olympus BX51 light microscope. From each sample, 1 to 3 random microphotographs at the magnification of × 4 and × 10 (TA, GAS and heart) or × 20 (DIA) were collected using Image-Pro Plus system. The digital images were processed by a pathologist using ImageJ software (U.S. National Institutes of Health, Bethesda, MD, USA). To quantify CSA and centralized nuclei (%) on hematoxylin and eosin-stained sections, one hundred myofibers were manually measured for each muscle/mouse using a tablet pen (Wacom Intruos) and analyzed by the ImageJ software after a linear calibration of 150 μm. The fibrotic area, corresponding to the area stained in red, was compared to the total area of the tissue section, and the results were expressed as percentage fibrosis. The % of fibrosis of muscles in the different treatment groups was expressed by averaging the three values obtained from each muscle.
The deciles of the CSA of the animals treated with Givinostat at the different doses were plotted against the corresponding deciles of the vehicle-treated mice and a linear regression analysis was performed on natural [CSAtreated = b CSAcontrol + a] and log_transformed data [log(CSAtreated) = log(a) + b log(CSAcontrol)]. […] In case of untransformed data, this means that the effect of Givinostat treatment is additive and any decile of the CSAtreatment distribution may be derived from the control data summing up a constant quantity (S) to each fiber AREA of the control group (CSAtreated = CSAcontrol + S). In case of log_transformed data, the effect of Givinostat has to be considered as a multiplicative factor on any generic fiber of the muscle under evaluation, whose size, after the treatment, results K times larger in comparison to the control group value (CSAtreated […] = K × CSAcontrol, with K = 10^a). The S or K parameter values were then determined through an iterative estimation procedure, based on sum of squares (SSQ) minimization, directly comparing the CSA distribution observed in treated animals with that obtained summing up the S value or multiplying by K the CSA values of the control group.

D2.B10 mice [4] = assay: Treadmill run to exhaustion test in D2.B10 mice; format: in vivo, mouse (D2.B10-Dmd^mdx/J); conditions: Deflazacort, prednisone 1 mg/kg, lower doses of Givinostat
Source text: as §1, §2
Run to exhaustion performance of mdx and D2.B10 mice was evaluated every 14 or 21 days, respectively, using a treadmill apparatus (Ugo Basile SRL, Italy). The exhaustion protocol consisted in an initially horizontal running at 5 m/min for 5 min after which the speed was increased 1 m/min every minute until exhaustion (the procedure was compliant with the standard operating procedures of TREAT–NMD Neuromuscular Network). […]
After taking baseline readings for behavioral assays (FNmax and distance run by the animals), mice were re-randomized based on these two parameters, also considering the previous randomization performed on their BW. […]

D2.B10 mice [5] = assay: Muscle fibrosis by Sirius Red staining in D2.B10 mice; format: in vivo, mouse (D2.B10-Dmd^mdx/J)
Source text: as §4

[6] = parameters: method as in PMID 15269190; conditions: mice, i.p. dosing; cited from earlier work
mdx mouse model = test system: mdx mouse model; parameters: method as in PMID 21137017; conditions: i.p.; cited from earlier work
[7] = parameters: method as in printed; conditions: mice; ref not given; cited from earlier work

For `CC(=O)OCC(=O)[C@@]12N=C(C)O[C@@H]1C[C@H]1[C@@H]3CCC4=CC(=O)C=C[C@]4(C)[C@H]3[C@@H](O)C[C@@]12C` [Deflazacort], the “Effect of steroid on FNmax in comparison” value (D2.B10 mice [1]; 1 mg/kg i.p. weekly, all the treatment period) was “lower and not significantly different from prednisone”, the “Time interval of significant FNmax improvement” value (D2.B10 mice [1]; Deflazacort 1 mg/kg i.p. weekly, Givinostat 1 mg/kg) was “from day 28 to day 90” and the “Body weight vs vehicle-treated mice” value [2] was “no significant differences”. The “Effect of steroid on cross-sectional area and centralized nuclei” value (D2.B10 mice [3]) was “unable to affect cross-sectional area or the number of centralized nuclei”, the “Effect on distance run, significance” value (D2.B10 mice [4]) was “not statistically significant” and the “Effect of steroid on fibrosis, summary” value (D2.B10 mice [5]; 1 mg/kg i.p. weekly) was “effective only in TA”. The “Reduction of fibrosis in DIA” value (D2.B10 mice [5]; T8) was “no significant effect”, the “Reduction of fibrosis in TA” value (D2.B10 mice [5]; T8, Givinostat 37.5 mg/kg, steroids 1 mg/kg, vs vehicle) was “about 22%” and the “Effect on fibrosis in GAS” value (D2.B10 mice [5]; T16) was “No significant effect”.

For `CC(/C=C/C(=O)NO)=C\[C@@H](C)C(=O)c1ccc(N(C)C)cc1` [TSA, trichostatin A], the Half-life [6] is listed as 6.3 min and the Peak plasma concentrations [6] is listed as “micromolar”.

For `O=C(CCCCCCC(=O)Nc1ccccc1)NO` [Vorinostat], the “Dose of peak functional and histologic effects (bell-shaped dose-response curve)” value (mdx mouse model) is listed as 1.2 mg/kg and the Oral bioavailability [7] is listed as “very poor oral bioavailability”.
